Measurements taken from patent publication US7919508B2, “3-piperidinylisochroman-5-ols as dopamine agonists” (Aventis Pharmaceuticals Inc., priority 2004, dated 2011).
pKi: −log10 of the molar value. Counter-ions that a name gives are not always drawn.

Key:
[1] = target: human dopamine D2Long (D2L) receptors (Homo sapiens, UniProt P14416)
Experimental: [N-Methyl-^3H]Spiroperidol Binding to Cloned Human Dopamine D2Long Receptors
This assay measures the in vitro activity of drugs on cloned human dopamine D2Long (D2L) receptors and predicts the direct dopamine-displacing properties of neuropsychiatric, cardiovascular and renal agents at human dopamine D2 receptors.
Cells were maintained in Ham's F12+10% Fetal Bovine Serum+Penicillin/Streptomycin (100 U/ml/100 μg/ml)+G418 (400 μg/ml) medium and were split using Trypsin-EDTA (1 ml/plate, room temperature for ˜2 min. or until cells have lifted off plates). • 2. […] Plates are incubated at 37° C.+5% CO2 for ˜3 days or until cells were confluent.
Cells are harvested by mechanical scraping, washed using PBS collected in 250 ml Corning polypropylene centrifuge tubes, spun down and resuspended in dH2O (final volume per harvest approximately 60 ml). Protein determination is made according to the method of Lowry (Biorad DC Assay Kit). Following the determination of the protein concentration, the protein is diluted into distilled water with 10% DMSO to the appropriate volume based on expression levels (Bmax). The concentrated protein is aliquoted into 1.5 ml screw top eppendorf tubes and placed into a −80° C. freezer.
Assay Requirement: 1 cryovial per two 96 well plates
0.5M Tris Wash Buffer, pH 7.7 • a) 44.4 g Tris HCl • 26.5 g Tris Base • q.s. to 1 Liter (0.5 M Tris buffer, pH 7.7 at 37° C.) • b) make a 1:10 dilution in distilled H2O (0.05 M. Tris buffer, pH 7.7) • 2. Tris Buffer containing physiological salts • a) Stock buffer • NaCl 7.014 g • KCl 0.372 g • CaCl2 0.222 g • MgCl2 0.204 g • q.s. To 100 ml with 0.5 M. Tris Buffer • b) Dilute 1:10 in distilled H2O • This yields 0.05 M. Tris HCl, pH 7.7, containing NaCl (120 mM), KCl (5 mM), CaCl2 (2 mM) and MgCl2 (1 mM) • Optional: add 0.1% ascorbic acid and check pH (in assays with compounds that may oxidize. • c) 1.0% polyethyleneimine stock in 0.5M Tris (reagent 1.a) • Dilute 1:10 in distilled H2O Binding Assay • 750 μl Tissue • 150 μl [^3H]NMSP • 100 μl vehicle (for total binding) or 30 μM (−)
eticlopride (for nonspecific binding) or appropriate drug concentration.
The 96-Well Packard Unifilters GF/B are incubated for >1 h at 25° C. in 0.1% polyethylenimine. The cold tissue is added last and mixed on a orbital shaker for a few seconds and is then incubated at 37° C. for 30 min in a shaking water bath. The assay is stopped by rapid filtration through Packard Unifilter plates. The filter membranes are then washed with 15 ml of ice-cold 0.05 M Tris buffer. The filters are then dried (˜15 min. under a heat lamp or incubated for 15 min. in a 60° C. oven) and a bottom seal is applied. Then 40 μl of Packard Microscint 20 scintillation cocktail are added and a permanent topseal (Type P) is applied and heat sealed. The plates are placed in a Packard Topcount.
Specific binding is defined as the difference between total binding and the binding in the presence of 3 μM S-(−)-eticlopride. Total binding is approximately 10% of the total added ligand. […] The percent inhibition at each drug concentration is the mean of duplicate determinations.

[2] = target: T1, human dopamine D1 receptor (Homo sapiens, UniProt P21728); assay: [3H]-SCH-23390 binding to cloned human dopamine D1 receptors (CHO cell membranes); conditions: competitive binding, [3H]-SCH-23390, cloned human D1 in CHO membranes; read-out: D1 affinity Ki
T1 construct: A 1.4 Kb Hind III to Xho I fragment was subcloned into the vector pMMLV; expressed in transfected cells; host or cells: CHO cells, clone CHO-D1M#9 (plasmid pHD1MMLV), membranes
T1 sequence (P21728 whole entry, the tested form may be a part): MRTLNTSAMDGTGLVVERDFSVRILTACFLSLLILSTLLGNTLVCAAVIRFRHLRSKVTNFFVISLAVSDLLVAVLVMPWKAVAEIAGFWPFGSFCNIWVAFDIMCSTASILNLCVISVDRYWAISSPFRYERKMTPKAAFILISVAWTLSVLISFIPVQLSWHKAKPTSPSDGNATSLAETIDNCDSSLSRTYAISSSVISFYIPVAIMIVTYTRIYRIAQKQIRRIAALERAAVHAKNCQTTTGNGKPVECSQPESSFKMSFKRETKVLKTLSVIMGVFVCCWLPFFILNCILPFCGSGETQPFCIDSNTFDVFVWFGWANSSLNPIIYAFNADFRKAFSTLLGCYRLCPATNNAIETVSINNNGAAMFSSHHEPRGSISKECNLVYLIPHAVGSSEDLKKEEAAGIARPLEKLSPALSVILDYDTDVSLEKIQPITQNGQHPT
Experimental: [^3H]-SCH-23390 Binding to Cloned Human Dopamine D1 Receptors
Determination of relative binding affinity of potential neuropsychiatric and other agents for the human dopamine D1 receptor.
The human D, cDNA was obtained from the laboratory of Dr. Marc Caron in the vector pCMV5. A 1.4 Kb Hind III to Xho I fragment was subcloned into the vector pMMLV. The plasmid pHD1MMLV was then sequenced completely. Transient transfections in COS-7 cells were performed and D1 specific binding was obtained. The construct pHD1MMLV was then transfected stably into CHO cells and 72 G418-resistant clones were isolated. High expressors were identified by mRNA dot blot analysis. Six high expressors were further characterized by binding and then clone CHO-D1M#9 was chosen for detailed pharmacological characterization. This clone was then grown in suspension culture for the purpose of obtaining enough protein to accommodate several months of screening.
B. Cell Culture Conditions
• 1. […] Cells are transferred to suspension culture when at least […] are available (this allows for 300,000 cells/ml in a 50 ml spinner flask; this is the ideal suspension density). Cells are removed from flasks with trypsin, spun down at 1000×G and resuspended the pellet in fresh medium: • 50% CHO-SFM-II+50% Ham's F12 w/10% FBS (final FBS conc. 5%)+400 μg/ml G418+1% P/S. • 3. After the transfer to suspension culture, growth is monitored and cell viability is assessed using trypan blue exclusion. Total and viable cell count on 5 sectors of the hemocytometer are recorded. When the viable cell density reaches 600,000 cell/ml, the volume is doubled. • 4. After 1 week of growth in the 50/50 medium, the cells are spun down and transferred to a new spinner flask and replaced with 75% CHO-SFM II/25% Ham's F12+10% FBS plus the pen-strep and G418. Thereafter every 3 days, the medium is replaced with new medium containing a decreasing amount of FBS as follows:
• 5. The final maintenance culturing medium is made up as follows: • A stock mixture of 10 ml of pen-strep, 0.5 ml of […] (active; final concentration: 200 μg/ml) G418 and 1 ml of FBS are mixed and filtered and refrigerated. A volume (11.5 ml) of this mixture is added to a freshly opened 1 L bottle of CHO-SFM II. C. Membrane Preparation
Cells are harvested into 250 ml centrifuge tubes and spun down at 1200×G. The medium is removed and 100 ml PBS (phosphate-buffered saline) is added to each centrifuge tube; cells are resuspended and spun down again. The PBS is removed and the final pellet is homogenized with a polytron on ice at a medium setting.
The membrane suspension is diluted in water and samples (10, 50 and 100 μl; q.s. to 100 μl with water) are diluted with 100 μl of 1% SDS. The sample is vortexed and allowed to stand for 5 min. Two aliquots each of the solubilized protein sample are placed in clean 13×100 test tubes for the assay. Instructions are followed as outlined in the BioRad DC protein determination kit (Catalog # 500-0112). OD readings that fall between 0.1-0.5 (mid-range of standard curve) should typically be used for calculations. Protein concentrations are calculated from a standard curve using bovine serum albumin as standard by linear regression and interpolation.
Following cell harvesting and protein determination, the homogenate is diluted with 10% DMSO to the correct volume based on Bmax and relative size of individual experiments to be conducted. The concentrated protein is stored in cryogenic vials in aliquots of 1-1.5 ml. Samples may be stored in −80° C. freezer or in liquid nitrogen.

Sequence of human dopamine D2Long (D2L) receptors (P14416 whole entry): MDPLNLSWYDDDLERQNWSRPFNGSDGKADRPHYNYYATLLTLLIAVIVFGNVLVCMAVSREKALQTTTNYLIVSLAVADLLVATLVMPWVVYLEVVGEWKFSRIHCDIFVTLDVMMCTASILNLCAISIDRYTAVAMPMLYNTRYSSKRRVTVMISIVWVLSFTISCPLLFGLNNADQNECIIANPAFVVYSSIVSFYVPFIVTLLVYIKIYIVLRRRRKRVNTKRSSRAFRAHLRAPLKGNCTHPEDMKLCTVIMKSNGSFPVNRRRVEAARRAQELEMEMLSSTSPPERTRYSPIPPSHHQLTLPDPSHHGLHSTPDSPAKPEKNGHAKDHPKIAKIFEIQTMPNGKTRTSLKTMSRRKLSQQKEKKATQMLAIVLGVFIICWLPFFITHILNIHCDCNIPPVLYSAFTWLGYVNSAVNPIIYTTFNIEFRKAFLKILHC

Row | pKi [1] | pKi [2] | SMILES
1 | ≤ 4.00 | 6.49 | Cc1ccc2c(c1O)C[C@@H](C1CCN(S(=O)(=O)C[C@]34CC[C@H](CC3=O)C4(C)C)CC1)O[C@H]2CN [Example 163, 1(S)-[4-((1R,3S)-1-Aminomethyl-5-hydroxy-6-methyl-isochroman-3-yl)-piperidine-1-sulfonylmethyl]-7,7-dimethyl-bicyclo[2.2.1]heptan-2-one hydrochloride]
2 | ≤ 4.00 | 6.40 | Cc1ccc2c(c1O)C[C@@H](C1CCN(S(=O)(=O)N(C)C)CC1)O[C@H]2CN [Example 164, 4-((1R,3S)-1-Aminomethyl-5-hydroxy-6-methyl-isochroman-3-yl)-piperidine-1-sulfonic acid dimethylamide hydrochloride]
3 | ≤ 5.00 | 6.64 | Cc1ccc2c(c1O)C[C@@H](C1CCN(S(=O)(=O)N3CCCCC3)CC1)O[C@H]2CN [Example 165, (1R,3S)-1-Aminomethyl-6-methyl-3-[1-(piperidine-1-sulfonyl)-piperidin-4-yl]-isochroman-5-ol hydrochloride]
4 | 6.61 | 6.68 | Cc1ccc2c(c1O)C[C@@H](C1CCN(S(=O)(=O)N3CCC(Cc4ccccc4)CC3)CC1)O[C@H]2CN [Example 166, (1R,3S)-1-Aminomethyl-3-[1-(4-benzyl-piperidine-1-sulfonyl)-piperidin-4-yl]-6-methyl-isochroman-5-ol hydrochloride]
5 | 6.76 | 6.80 | Cc1ccc2c(c1O)C[C@@H](C1CCN(Cc3ccccc3)CC1)O[C@H]2CN(C)C [Example 169, (1R,3S)-3-(1-Benzyl-piperidin-4-yl)-1-dimethylaminomethyl-6-methyl-isochroman-5-ol]
6 | 6.42 | 5.78 | CCN(CC)C[C@@H]1O[C@H](C2CCN(Cc3ccccc3)CC2)Cc2c1ccc(C)c2O [Example 170, (1R,3S)-3-(1-Benzyl-piperidin-4-yl)-1-diethylaminomethyl-6-methyl-isochroman-5-ol]
7 | 6.50 | 7.01 | CNC[C@@H]1O[C@H](C2CCN(Cc3ccccc3)CC2)Cc2c1ccc(C)c2O [Example 171, (1R,3S)-3-(1-Benzyl-piperidin-4-yl)-6-methyl-1-methylaminomethyl-isochroman-5-ol]
8 | 6.55 | 6.28 | CCNC[C@@H]1O[C@H](C2CCN(Cc3ccccc3)CC2)Cc2c1ccc(C)c2O [Example 172, (1R,3S)-3-(1-Benzyl-piperidin-4-yl)-1-ethylaminomethyl-6-methyl-isochroman-5-ol]
9 | 6.62 | 6.37 | CCN(C)C[C@@H]1O[C@H](C2CCN(Cc3ccccc3)CC2)Cc2c1ccc(C)c2O [Example 173, (1R,3S)-3-(1-Benzyl-piperidin-4-yl)-1-[(ethyl-methyl-amino)-methyl]-6-methyl-isochroman-5-ol]
10 | 6.61 | 6.29 | CCCNC[C@@H]1O[C@H](C2CCN(Cc3ccccc3)CC2)Cc2c1ccc(C)c2O [Example 174, (1R,3S)-3-(1-Benzyl-piperidin-4-yl)-6-methyl-1-propylaminomethyl-isochroman-5-ol]
11 | ≤ 5.00 | 5.51 | CCCN(C)C[C@@H]1O[C@H](C2CCN(Cc3ccccc3)CC2)Cc2c1ccc(C)c2O [Example 175, (1R,3S)-3-(1-Benzyl-piperidin-4-yl)-6-methyl-1-[(methyl-propyl-amino)-methyl]-isochroman-5-ol]
12 | 6.91 | 5.77 | C=CCN(C)C[C@@H]1O[C@H](C2CCN(Cc3ccccc3)CC2)Cc2c1ccc(C)c2O [Example 176, (1R,3S)-1-[(Allyl-methyl-amino)-methyl]-3-(1-benzyl-piperidin-4-yl)-6-methyl-isochroman-5-ol]
13 | 6.52 | ≤ 5.00 | Cc1ccc2c(c1O)C[C@@H](C1CCN(Cc3ccccc3)CC1)O[C@H]2CNC1CCC1 [Example 177, (1R,3S)-3-(1-Benzyl-piperidin-4-yl)-1-cyclobutylaminomethyl-6-methyl-isochroman-5-ol]
14 | 7.07 | 6.19 | C=CCN(CC=C)C[C@@H]1O[C@H](C2CCN(CC(=O)c3ccccc3)CC2)Cc2c1ccc(C)c2O [Example 180, 2-[4-((1R,3S)-1-Diallylaminomethyl-5-hydroxy-6-methyl-isochroman-3-yl)-piperidin-1-yl]-1-phenyl-ethanone]
15 | 6.85 | 6.23 | CCCN(CCC)C[C@@H]1O[C@H](C2CCN(Cc3ccccc3)CC2)Cc2c1ccc(C)c2O [Example 188, (1R,3S)-3-(1-Benzyl-piperidin-4-yl)-1-dipropylaminomethyl-6-methyl-isochroman-5-ol dihydrochloride]
16 | 6.44 | 7.34 | Cc1ccc(C(=O)NCCN2CCC([C@@H]3Cc4c(ccc(C)c4O)[C@H](CN)O3)CC2)cc1 [Example 190, N-{2-[4-((1R,3S)-1-Aminomethyl-5-hydroxy-6-methylisochroman-3-yl)-piperidin-1-yl]-ethyl}-4-methylbenzamide dihydrobromide]
